Patent US6767738B1, “Method of isolating adult mammalian CNS-derived progenitor stem cells using density gradient centrifugation” (The Salk Institute for Biological Studies, priority 1999, dated 2004)

Test system: c-Fos
Assay: c-Fos immunofluorescence double labeling after neurotrophin stimulation
Assay type: cell-based, rat
Conditions: RA for 6 days prior to stimulation by neurotrophins
Protocol: Cell Culture. For proliferating conditions, clonal stem cells (AP14) were cultured in Dulbecco's Modified Eagles Medium/Ham's F12 (DMEM/F12, 1:1) containing N2 supplement (Gibco BRL, Gaithersburg, Md.) and 20 ng/ml rhFGF-2 (provided by A. Baird, Prizm Pharmaceuticals Inc., La Jolla, Calif.). Culture dishes (Becton Dickinsin Labware, Lincoln Park, N.J.) were coated with polyomithine and mouse laminin as previously described by Ray, et al., Proliferation, differentiation and long-term culture of primary hippocampal neurons, Proc Natl Acad Sci USA 90:3602-3606 (1993). For differentiation experiments, cells were plated into polyornithine/laminin coated glass chamber slides (Nunc, Naperville, Ill.) at a density of 2.5—103 per cm2. The cells were incubated for 24 hrs in normal N2 medium containing 20 ng/ml FGF-2, and then the medium was replaced by N2 medium containing 0.5% […] (FBS) and 0.01% DMSO (control solvent) or […] all-trans retinoic acid (Sigma, St. Louis, Mo.). […]
Immunofluorescence. […] Both the average percentage and the absolute number +/− SEM of immunofluorescent cells were determined by counting 10 or 50 high power fields (20×) visualized under fluorescence. The total number of cells was counted using nuclear counterstaining with 4′,6diamidino-2-phenylindole (DAPI, Sigma). […]

SMILES: CC1=C(/C=C/C(C)=C/C=C/C(C)=C/C(=O)O)C(C)(C)CCC1 [RA, all-trans retinoic acid]
- number of c-Fos-positive cells: significantly enhanced
